Source: patent US10173968B2, “Bishydrazone-based antifungal agents” (University of Kentucky Research Foundation, priority 2016, dated 2019)
Like-named read-outs stand apart in the source and are kept apart here.

Columns and labels:
C. albicans ATCC 10231 = test: Antifungal MIC, CLSI M27-A3 microbroth dilution; format: cell-based, Candida albicans; settings: Candida albicans, ATCC10231, C. albicans ATCC 10231, resistant to FLC, ITC, and VOR, read-out: MIC
Protocol: (§1) In vitro MIC testing was performed according to the CLSI M27-A3 standard microbroth dilution methodology for the susceptibility testing of yeasts with minor modifications.

C. albicans ATCC 1237 = test: Antifungal MIC, CLSI M27-A3 microbroth dilution; format: cell-based, Candida albicans; settings: Candida albicans, ATCC1237, C. albicans ATCC 1237, resistant to FLC, ITC, and VOR, read-out: MIC
Protocol: as §1

C. albicans ATCC 2310 = test: Antifungal MIC, CLSI M27-A3 microbroth dilution; format: cell-based, Candida albicans; settings: Candida albicans, ATCC2310, C. albicans ATCC 2310, susceptible to FLC, ITC, and VOR, read-out: MIC
Protocol: as §1

C. albicans ATCC 64124 = test: Antifungal MIC, CLSI M27-A3 microbroth dilution; format: cell-based, Candida albicans; settings: Candida albicans, ATCC64124, C. albicans ATCC 64124, resistant to FLC, ITC, and VOR, read-out: MIC
Protocol: as §1

C. albicans ATCC 90819 = test: Antifungal MIC, CLSI M27-A3 microbroth dilution; format: cell-based, Candida albicans; settings: Candida albicans, ATCC90819, C. albicans ATCC 90819, resistant to FLC, ITC, and VOR, read-out: MIC
Protocol: as §1

C. albicans ATCC 2876 = test: Antifungal MIC, CLSI M27-A3 microbroth dilution; format: cell-based, Candida albicans; settings: Candida albicans, ATCC2876, C. albicans ATCC 2876, susceptible to FLC, ITC, and VOR, read-out: MIC
Protocol: as §1

C. albicans ATCC 1003 = test: Antifungal MIC, CLSI M27-A3 microbroth dilution; format: cell-based, Candida albicans; settings: Candida albicans, ATCC1003, read-out: MIC
Protocol: as §1

E. cloacae ATCC 13047 = test: Antibacterial MIC, double-dilution method; format: cell-based; settings: Enterobacter cloacae, ATCC13047, strain F, Gram-negative, read-out: MIC
How it was run: (§2)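 The lowest inhibitory concentration is reported from a twofold dilution series, after an initial single-concentration screen with every compound at 500 μM.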

E. coli MC1061 = test: Antibacterial MIC, double-dilution method; format: cell-based; settings: Escherichia coli, strain G, Gram-negative, read-out: MIC
How it was run: as §2

A. baumannii ATCC 19606 = test: Antibacterial MIC, double-dilution method; format: cell-based; settings: Acinetobacter baumannii, ATCC19606, strain E, Gram-negative, read-out: MIC
How it was run: as §2

B. subtilis 168 = test: Antibacterial MIC, double-dilution method; format: cell-based; settings: Bacillus subtilis, strain A, Gram-positive
How it was run: as §2

VRE = test: Antibacterial MIC, double-dilution method; format: cell-based; settings: Enterococcus, strain D, Gram-positive, read-out: MIC
How it was run: as §2

K. pneumoniae ATCC 27736 = test: Antibacterial MIC, double-dilution method; format: cell-based; settings: Klebsiella pneumoniae, ATCC27736, strain H, Gram-negative, read-out: MIC
How it was run: as §2

P. aeruginosa ATCC 27853 = test: Antibacterial MIC, double-dilution method; format: cell-based; settings: Pseudomonas aeruginosa, ATCC27853, strain I, Gram-negative, read-out: MIC
How it was run: as §2

S. enterica ATCC 14028 = test: Antibacterial MIC, double-dilution method; format: cell-based; settings: Salmonella enterica, ATCC14028, strain J, Gram-negative, read-out: MIC
How it was run: as §2

[1] = system: L. monocytogenes ATCC 19115; test: Antibacterial MIC, double-dilution method; format: cell-based; settings: Listeria monocytogenes, ATCC19115, strain B, Gram-positive, read-out: MIC
How it was run: as §2

M. smegmatis MC2-155 = test: Antibacterial MIC, double-dilution method; format: cell-based; settings: Mycolicibacterium smegmatis, MC2155, strain K, mycobacterial, read-out: MIC
How it was run: as §2

MRSA = test: Antibacterial MIC, double-dilution method; format: cell-based; settings: Staphylococcus aureus, strain C, Gram-positive, read-out: MIC
How it was run: as §2

[2] = system: all bacterial strains tested; test: Antibacterial MIC, summary over the panel; format: cell-based; settings: read-out: antibacterial MIC values
Protocol: MIC values were determined against a variety of Gram-positive (strains A-D) and Gram-negative (E-J) bacterial and mycobacterial (K) strains using the double-dilution method, as previously published. Preliminary screening was performed using 500 μM of each compound.

[3] = Mammalian cell cytotoxicity, resazurin; format: cell-based; settings: human
Protocol: Another important aspect to consider during the development of antimicrobial agents is their potential toxicity towards mammalian cells. Having established the potent antimicrobial activities of the bis(N-amidino)hydrazones and N-amidino-N′-aryl-bishydrazones against bacteria and fungi, the toxicity profile of these compounds was determined against two mammalian cell lines (A549 and BEAS-2B; FIGS. 4A-B). […]. Cytotoxicity assays were performed as previously described. The human lung carcinoma epithelial cells A549 and the normal human bronchial epithelial cells BEAS-2B were grown in F12-K and DMEM medium containing 10% fetal bovine serum (FBS) and 1% antibiotics, respectively. The confluent cells were trypsinized with 0.05%-trypsin-0.53 mM EDTA, centrifuged (1,200 rpm) and resuspended in fresh medium (F12-K or DMEM). The cells were seeded into 96-well microtiter plates at a density of 3,000 cells/well and were grown overnight. […] Triton X-100® (0.5%, v/v) gave complete loss of cell viability and was used as the positive control. The percent cell survival was calculated as: (test value/control value)×100, where control value represents cells+resazurin−drug, and test value represents cells+resazurin+drug.

[4] = C. albicans ATCC 1003, converted from μg/mL

Cl.N=C(N)N/N=C/c1ccc(-c2ccc(C=NNc3ccccc3Cl)cc2)cc1 (mixture of isomers) [Compound 7Aa, E)-2-((4′-((E and Z)-(2-(2-Chlorophenyl)hydrazono)methyl)-[1,1′-biphenyl]-4-yl)methylene)hydrazine-1-carboximidamide monohydrochloride]
MIC (C. albicans ATCC 10231; converted from μg/mL): 4.6 µM
MIC (C. albicans ATCC 1237; converted from μg/mL): 9.2 µM
MIC (C. albicans ATCC 1237): 3.9 µg/mL
MIC (C. albicans ATCC 2310; converted from μg/mL): 4.6 µM
MIC (C. albicans ATCC 64124; converted from μg/mL): 9.2 µM
MIC (C. albicans ATCC 64124): 3.9 µg/mL
MIC (C. albicans ATCC 90819; converted from μg/mL): 4.6 µM
MIC (C. albicans ATCC 2876; converted from μg/mL): 4.6 µM
MIC (C. albicans ATCC 1003; [4]): 4.6 µM
MIC (E. cloacae ATCC 13047; converted from μM): > 215 µg/mL
MIC (E. cloacae ATCC 13047; range 0.5 to 500 μM): > 500 µM
MIC (E. coli MC1061; converted from μM): > 215 µg/mL
MIC (E. coli MC1061; range 0.5 to 500 μM): > 500 µM
MIC (A. baumannii ATCC 19606; converted from μM): > 215 µg/mL
MIC (A. baumannii ATCC 19606; range 0.5 to 500 μM): > 500 µM
MIC (B. subtilis 168; converted from μM): > 215 µg/mL
MIC (B. subtilis 168; range 0.5 to 500 μM): > 500 µM
MIC (VRE; converted from μM): 0.9 µg/mL
MIC (K. pneumoniae ATCC 27736; converted from μM): > 215 µg/mL
MIC (K. pneumoniae ATCC 27736; range 0.5 to 500 μM): > 500 µM
MIC (P. aeruginosa ATCC 27853; converted from μM): > 215 µg/mL
MIC (P. aeruginosa ATCC 27853; range 0.5 to 500 μM): > 500 µM
MIC (S. enterica ATCC 14028; converted from μM): > 215 µg/mL
MIC (S. enterica ATCC 14028; range 0.5 to 500 μM): > 500 µM
MIC ([1]; converted from μM): 0.4 to 0.9 µg/mL
MIC ([1]; range 0.5 to 500 μM): 1 to 2 µM
MIC (M. smegmatis MC2-155; converted from μM): 1.7 µg/mL
MIC (M. smegmatis MC2-155; range 0.5 to 500 μM): 3.9 µM
MIC (MRSA; converted from μM): 0.9 µg/mL

Cl.Cl.N=C(N)N/N=C/c1ccc(-c2cccc(/C=N/NC(=N)N)c2)cc1 [Compound 3B, (2E,2′E)-2,2′-([1,1′-Biphenyl]-3,4′-diylbis(methanylylidene))bis(hydrazine-1-carboximidamide) dihydrochloride]
MIC (C. albicans ATCC 10231; converted from μg/mL): 9.9 µM
MIC (C. albicans ATCC 10231): 3.9 µg/mL
MIC (C. albicans ATCC 1237; converted from μg/mL): 9.9 µM
MIC (C. albicans ATCC 1237): 3.9 µg/mL
MIC (C. albicans ATCC 2310; converted from μg/mL): 9.9 µM
MIC (C. albicans ATCC 2310): 3.9 µg/mL
MIC (C. albicans ATCC 64124; converted from μg/mL): 9.9 µM
MIC (C. albicans ATCC 64124): 3.9 µg/mL
MIC (C. albicans ATCC 90819; converted from μg/mL): 9.9 µM
MIC (C. albicans ATCC 90819): 3.9 µg/mL
MIC (C. albicans ATCC 2876; converted from μg/mL): 9.9 µM
MIC (C. albicans ATCC 2876): 3.9 µg/mL
MIC (C. albicans ATCC 1003; [4]): 9.9 µM
MIC (C. albicans ATCC 1003): 3.9 µg/mL
MIC [2]: 0.4 to 3.3 µg/mL
MIC (E. cloacae ATCC 13047; converted from μM): > 198 µg/mL
MIC (E. cloacae ATCC 13047; range 0.5 to 500 μM): > 500 µM
MIC (E. coli MC1061; converted from μM): > 198 µg/mL
MIC (E. coli MC1061; range 0.5 to 500 μM): > 500 µM
MIC (A. baumannii ATCC 19606; converted from μM): > 198 µg/mL
MIC (A. baumannii ATCC 19606; range 0.5 to 500 μM): > 500 µM
MIC (B. subtilis 168; converted from μM): > 198 µg/mL
MIC (B. subtilis 168; range 0.5 to 500 μM): > 500 µM
MIC (VRE; converted from μM): 1.5 µg/mL
MIC (VRE; range 0.5 to 500 μM): 3.9 µM
MIC (K. pneumoniae ATCC 27736; converted from μM): > 198 µg/mL
MIC (K. pneumoniae ATCC 27736; range 0.5 to 500 μM): > 500 µM
MIC (P. aeruginosa ATCC 27853; converted from μM): > 198 µg/mL
MIC (P. aeruginosa ATCC 27853; range 0.5 to 500 μM): > 500 µM
MIC (S. enterica ATCC 14028; converted from μM): > 198 µg/mL
MIC (S. enterica ATCC 14028; range 0.5 to 500 μM): > 500 µM
MIC ([1]; converted from μM): 0.4 µg/mL
MIC ([1]; range 0.5 to 500 μM): 1 µM
MIC (M. smegmatis MC2-155; converted from μM): 0.4 µg/mL
MIC (M. smegmatis MC2-155; range 0.5 to 500 μM): 1 µM
MIC (MRSA; converted from μM): 1.5 µg/mL
MIC (MRSA; range 0.5 to 500 μM): 3.9 µM
IC50 at 24 h ([3]; A549 lung carcinoma epithelial cells, A549, 24 h): 7.8 to 15.6 µg/mL
IC50 at 24 h ([3]; BEAS-2B normal bronchial epithelial cells): 7.8 to 15.6 µg/mL
